| melting point [°C] | Structure (SMILES) |
| --- | --- |
| 160 | Cc1cccc(NC(=O)NCC(=O)N(CC(=O)OC(C)(C)C)c2ccccc2C(=O)N2CCCc3ccccc32)c1 |
| 178 to 180 | CC(C)(C)OC(=O)N1CCC(n2nnc(-c3cnc(-c4ccccc4)nc3)n2)CC1 |
| 138 to 140 | C#CCN1CCN(C2=Nc3cc(Cl)ccc3Nc3ccccc32)CC1 |
| 78 to 80 | CCN(CC)CCNC(=O)c1cccc2cc3c(I)cccc3nc12 |
| 161 to 163 | COc1ccc(C2=NN(C3CCN(S(=O)(=O)c4ccc(C#N)cc4)CC3)C(=O)C(C)(C)C2)cc1OC |
| 103 to 105 | CCN(CC)CCNc1ccc(CO)c2sc3ccc(OC)cc3c(=O)c12 |
| 210 to 211 | CC(=O)Nc1c(N)cc(C(=O)O)c(O)c1Br |
| 65 to 75 | COC(C)(CCCCC(C)(C)O)c1cccc(C=Cc2cc(O)cc(O)c2)c1 (stereo unspecified) |
| 100 to 102 | CCCNC(=O)c1c(Cl)cccc1OC(C)(CC)CC |
| 221 to 223 | COc1csc(C(=O)C2C(=O)N(C(N)=O)c3ccc(Cl)cc32)c1 (stereo unspecified) |
| 82 to 83 | Cc1cccc(C)c1NCC(=O)N1CCCO1 |
| 189 to 199 | O=C1CCc2c(ccc3cc(O)ccc23)O1 |
| 126 to 128 | COC(=O)CCNC(=O)COc1ccc2c(c1)CC(NS(=O)(=O)c1ccc(Cl)cc1)C2 (stereo unspecified) |
| 182 | Nc1cc(=O)n(Cc2ccc(Br)c(Br)c2)[nH]1 |
| 180 to 181 | CC(C)(C)OC(=O)OCn1c(C(=O)Nc2nc(-c3ccccc3)c(CCO)s2)cc2ccccc21 |
| 198 | CCOC(=O)COc1ccc(-c2nc3ncccc3[nH]2)c(OC)c1 |
| > 250 | Cc1nc2c(N)nc3ccccc3c2n1CC1(O)CCCCC1 |
| 131 to 132 | CCCOc1cc(CCCOc2c(CC(=O)O)cccc2OC)n(Cc2ccc(Cl)cc2)n1 |
| 167 to 170 | CC12CCC(OC(=O)c3ccc(Cl)cc3)CC1=CCC1C2CCC2(C)C(=NO)CCC12 (stereo unspecified) |
| 105 to 106 | CN(Cc1ccccc1)C(=O)c1ccc2nonc2c1 |
| 205 to 207 | CC(C)(C)OC(=O)N1CCC(c2c[nH]c3ccc(N)cc23)CC1 |
| 148 to 150 | CN1CCOc2cc(S(=O)(=O)n3c(COC(C)(C)C(=O)O)cc4cc(Cl)ccc43)ccc21 |
| 102 to 108 | Cc1cccc(CCOc2nc(N)c3ncn(C4OC(CO)C(O)C4O)c3n2)c1 (stereo unspecified) |
| 147 | CC(=O)Oc1cc2oc(=O)ccc2cc1C |

| melting point [°C] | Structure (SMILES) |
| --- | --- |
| 55 to 56 | CC(C)(C)C(=O)OCOC(=O)c1cccnc1Nc1cccc(C(F)(F)F)c1 |
| 105 to 107 | Nc1cc(S(=O)(=O)c2ccccc2)ccc1Cl |
| 114 to 116 | CC(=O)N1CCC2(CC1)CC(=O)c1c(O)cccc1O2 |
| 194 to 196 | Cn1cc(S(=O)(=O)Cl)c(=O)c2ccc(F)cc21 |
| 138 to 140 | C1=C(CCc2ccccc2)CCN(Cc2c[nH]c3ccccc23)C1 |
| 137 to 138 | COCOc1c(NC(=S)NCc2cccnc2)cc(OC)cc1C(C)(C)C |
| 193 to 195 | CCOCc1nc2c(N)nc3cc(-c4ccc(F)c(F)c4)cnc3c2n1CC(C)(C)O |
| 129 to 131 | COC(=O)Oc1sc(-c2ccc(F)cc2)nc(=O)c1-c1c(C)cc(C)cc1C |
| 161 to 162 | O=C(CCCN1CCC(NC(=O)c2ccccc2)CC1)c1ccc(F)cc1 |
| 158 to 159 | CC1(C)CSc2sc(S(N)(=O)=O)cc2C1O (stereo unspecified) |
| 204 to 207 | CC(=O)Oc1c(C)c(C)c2c(c1C)C(=O)CC(O)(COc1ccc([N+](=O)[O-])cc1)O2 (stereo unspecified) |
| 213 to 215 | COc1cc2c(Nc3ccc4cn[nH]c4c3)c(C#N)cnc2cc1OCCN1CCSCC1 |
| 88 to 90 | CO/C=C(/C(=O)OC)c1ccccc1Oc1cc(Cl)nc(Cl)n1 |
| 130 to 131 | O=C(Nc1ccc2c(c1)nc1n2CCC1)c1cc2nc(C(F)(F)F)ccc2n1Cc1ccncc1 |
| 188 to 191 | CC(C)On1c(-c2ccccc2)nc2c(N)nc3ccccc3c21 |
| 120 to 122 | CCOC(=O)c1cc(-n2c(=O)cc(C)n(C)c2=O)ccc1Cl |
| 187 | O=C(Nc1ccccc1)N1CC2CC(CN(Cc3ccc(Cl)cc3)C2)C1 |
| 216 to 217 | CNC(=O)c1ccccc1Nc1nc(Nc2ccc3c(c2)COCCN3C)ncc1Cl |
| 170 | O=C(O)COc1cccc2c1CCC(Cc1c[nH]c(C(c3ccccc3)c3ccccc3)n1)C2 (stereo unspecified) |
| 173 to 176 | CCCSc1ncc(C(=O)N[C@@H](C)C(=O)O)n1Cc1ccccc1Cl |
| > 270 | CCCC1=C(C#N)C(c2ccccc2Cl)c2c(n[nH]c2C2CCCC2)N1 (stereo unspecified) |
| 275 to 277 | Nc1c(F)c(N2C[C@@H](N)[C@@H](n3ccnn3)C2)c(F)c2c1c(=O)c(C(=O)O)cn2C1CC1 (relative stereo) |
| 82 to 91 | CC1Cc2ccccc2C1=NO (stereo unspecified) |
| 166 | O=C(c1ccc(F)cc1)C1CCN(CCn2c(=O)c3ccccc3n(-c3ccccc3)c2=O)CC1 |

Further lines, the molecule ahead of its results:

| Structure (SMILES) | melting point [°C] |
| --- | --- |
| Cc1cc(Oc2cc(C)c([N+](=O)[O-])cn2)n[nH]1 | 136 to 139 |
| Cn1ccc2cc(-c3ccc(S(=O)(=O)n4ccc(/C=C/C(=O)NO)c4)cc3)ccc21 | 177 to 179 |
| CC1(C)OC(C=Cc2ccncc2)=CC1=O | 94 to 96 |
| CN(C)C1(c2ccccc2)CCC(C#N)(N2CCCC2)CC1 (stereo unspecified) | 136 to 142 |
| CC(C)Cn1cnc2cnc3cccnc3c21 | 82 to 84 |
| CS(=O)(=O)c1ccc(-c2cnn(CC(F)(F)F)c(=O)c2-c2ccc(F)cc2)cc1 | 177 to 179 |
| COC(=O)c1ccc(OCCNC(=O)C2Cc3ccccc3N2S(=O)(=O)c2ccc(-c3cccc(C(F)(F)F)c3)cc2)c(F)c1 (stereo unspecified) | 65 to 70 |
| O=C1c2ccccc2C(=O)N1Nc1ccccc1 | 180 |
| Cc1c(-c2ccnc(C(F)(F)F)c2)sc2nc(N)[nH]c(=O)c12 | 335 to 355 |
| CCCCCCCCCCCCCCCC(=O)OCC1OC(n2cc(C)c(=O)[nH]c2=O)CC1F (stereo unspecified) | 65 to 66 |
| CCCCCn1c2ccc(C(=S)N3CCCCC3)cc2c2ccc(OC)cc21 | 116 to 118 |
| Cc1nccc2c3ccc(OCc4ccccc4)cc3n(Cc3ccccc3)c12 | 156 |
| CCOC(=O)C(C)NNc1cc(F)cc(F)c1 (stereo unspecified) | 139 to 141 |
| O=[N+]([O-])CC1(SCc2ccccc2)CCC2(CC1)OCCO2 | 121 to 122 |
| C=CCN1C(=O)CC(=O)N(c2ccccc2)c2cc(Cl)ccc21 | 199 to 201 |
| COC(=O)c1ccccc1S(=O)(=O)NC(=O)Nc1nc(CSc2ccccn2)cc(OC)n1 | 175 to 181 |
| Cc1cc(C)c(Cc2cnc(NCCCCc3ncc(Br)cc3C)[nH]c2=O)cn1 | 110 to 112 |
| c1ccc(CCc2ccc[nH]2)cc1 | 40 to 42 |
| CNc1c2oc3ccccc3c2nn1C | 154 to 156 |
| O=c1ncc(F)cn1CCO | 134 to 136 |
| COc1ccc(C=N[C@H]2C(OC(C)=O)O[C@H](COC(C)=O)[C@@H](OC(C)=O)[C@@H]2OC(C)=O)cc1 (stereo partly specified) | 180 to 181 |
| OC1(C23CC4CC(CC(C4)C2)C3)CCCCC1 | 166 to 168 |
| O=[N+]([O-])c1cccc(-c2nc(O)cc3cccnc23)c1 | 262 to 265 |
| Cc1ccc2nc(-c3cc(C(F)F)nn3-c3ccc(S(C)(=O)=O)cc3)sc2c1 | 183 to 184 |
| CN(C)C(=O)Cn1nc(-c2ccccc2O)nc1-c1ccccc1O | 196 to 197 |
| COc1ccc(-c2nc(C)cc(OCCN3CCN(C(c4ccccc4)c4ccccc4)CC3)n2)cc1 | 132 to 133 |
| CN(C)N=C(N)Nc1c(Cl)cccc1Cl | > 280 |

| Structure (SMILES) | melting point [°C] |
| --- | --- |
| CC1(C)CC(=O)c2c(Nc3ccccn3)cn(-c3ccccn3)c2C1 | 180 to 183 |
| CCCN(CCC12CC3CC(CC(C3)C1)C2)C(=O)NCCCc1ccncc1 | 99 to 103 |
| O=c1[nH]c2ncc(-c3ccc(O)cc3)nc2n1CCO | 308 to 310 |
| CCCCOCC(CO)OCn1cnc2c(O)nc(N)nc21 (stereo unspecified) | 208 to 211 |
| O=C(O)c1ccc(-c2coc(-c3ccc(C(F)(F)F)cc3)n2)cc1 | 294 to 295 |
| Sc1nnc(-c2cnccn2)s1 | 224 to 228 |
| COc1ccc(C(C)N(C)CCCOc2ccc(S(=O)(=O)c3c(C(C)C)cn4ccccc34)cc2)cc1OC (stereo unspecified) | 82 to 83 |
| CC(C)OC1=NC(=O)N(C(C)C)S(=O)(=O)N1 | 164 to 167 |
| O=C(Cc1ccc(Cl)cc1)c1ccc(OC(F)F)cc1 | 74 to 76 |
| CN(CCO)Cc1ccc2c(c1)c(=O)c(C(=O)NCc1ccc(Cl)cc1)cn2C | 130 to 131 |
| Cc1noc(C)c1S(=O)(=O)Nc1ccc(Cl)cc1 | 144 |
| CCCCOc1ccc(Cl)cc1C(=O)NCc1ccc(CC(=O)O)cc1 | 172 |
| O=C1c2ccccc2C(=O)N1C(Cc1ccccc1)CP(=O)(O)O (stereo unspecified) | 127 to 130 |
| CN(C)CCc1cccc(OCCCN2C(=O)c3ccccc3C2=O)c1 | 59 to 60 |
| COc1ccc(C(=O)O)c(OCc2ccc(OCCc3nc(-c4ccccc4)oc3C)cc2)c1 | 113 to 115 |
| CC(C)N(C)CCOc1ccc(-n2ccc(OCc3ccc(Cl)cn3)cc2=O)cc1 | 137 to 138 |
| N#CC=Cc1ccc(Cc2ncc[nH]2)cc1 | 118 to 120 |
| Cc1nc(-n2cc(CNc3ccccc3)nn2)sc1C(=O)NCc1ccccc1 | 159 to 162 |
| O=C(O)[C@@H](O)Cc1ccc(O)c([N+](=O)[O-])c1 | 111 |
| CCCc1ccnc(C(N)=O)c1C(N)=O | 178 to 179 |
| OCCNc1nc2ccc(Cl)cc2c2nc(-c3ccco3)nn12 | 214 to 217 |
| CCCn1nc(-c2ccc(O)c(F)c2)c2cccc(Cl)c21 | 134 to 135 |
| O=P(c1ccccc1)(c1ccccc1)c1ccc(F)cc1F | 111 to 112 |
| Clc1cccc(OCCBr)c1Cl | 51 to 56 |
| CCCc1c(C(=O)NCc2ccc3c(Br)c(OCC(=O)O)ccc3c2)cnn1-c1ccccc1 | 140 to 145 |
| O=C(O)C1Oc2ccc3c(-c4ccccc4)noc3c2O1 (stereo unspecified) | 187 to 190 |

Reference: a melting point compilation (Tetko et al.; mined from patent text by program, amines drawn as free bases though some values may be those of a salt)
